Measurements reported in patent publication US20060293346A1, “Fungicidal mixtures” (priority 2003, published 2006).

Test system: Plasmopara viticola
Test: Activity against peronospora of grapevines caused by Plasmopara viticola (protective spray of potted vines, cultivar Riesling)
Assay type: in vivo
Details: individual active compound, untreated control 84% infection
Procedure: The active compounds, separately or jointly, were prepared as a stock solution comprising 0.25% by weight of active compound in acetone or DMSO. 1% by weight of the emulsifier Uniperol® EL (wetting agent having emulsifying and dispersant action based on ethoxylated alkylphenols) was added to this solution, and the mixture was diluted with water to the desired concentration.
Use Example—Activity Against peronospora of Gravevines Caused by Plasmopara viticola
Leaves of potted vines of the cultivar “Riesling” were sprayed to runoff point with an aqueous suspension having the concentration of active compound stated below. The next day, the undersides of the leaves were inoculated with an aqueous zoospore suspension of Plasmopara viticola. The grapevines were then initially placed in a water-vapor-saturated chamber at 24° C. for 48 hours and then in a greenhouse at 20-30° C. for 5 days. After this period of time, the plants were again placed in a humid chamber for 16 hours to promote sporangiophore eruption. The extent of the development of the disease on the undersides of the leaves was then determined visually.
The visually determined percentages of infected leaf areas were converted into efficacies in % of the untreated control:
The efficacy (E) is calculated as follows using Abbot's formula: E=(1−α/β)·100 • α corresponds to the fungicidal infection of the treated plants in % and • β corresponds to the fungicidal infection of the untreated (control) plants in %
An efficacy of 0 means that the infection level of the treated plants corresponds to that of the untreated control plants; an efficacy of 100 means that the treated plants were not infected.
The expected efficacies of combinations of active compounds were determined using Colby's formula (Colby, S. R. “Calculating synergistic and antagonistic responses of herbicide combinations”, Weeds, 15, pp. 20-22, 1967) and compared with the observed efficacies.
Colby's Formula: E=x+y−x·y/100 • E expected efficacy, expressed in % of the untreated control, when using the mixture of the active compounds A and B at the concentrations a and b • x efficacy, expressed in % of the untreated control, when using the active compound A at the concentration a • y efficacy, expressed in % of the untreated control, when using the active compound B at the concentration b

[1] = 4 ppm in the spray liquor, vines Riesling

CC1CCN(c2c(-c3c(F)cccc3Cl)c(Cl)nc3ncnn23)CC1 [A]
Efficacy in % of the untreated control [1]: 16%

C[C@H](Nc1c(-c2c(F)cc(F)cc2F)c(Cl)nc2ncnn12)C(F)(F)F [B]
Efficacy in % of the untreated control [1]: 52%

CC1CCN(c2c(-c3c(F)cc(F)cc3F)c(Cl)nc3ncnn23)CC1 [I, 5-chloro-7-(4-methylpiperidin-1-yl)-6-(2,4,6-trifluorophenyl)-[1,2,4]triazolo[1,5-a]pyrimidine]
Efficacy in % of the untreated control [1]: 52%

Fc1ccc(Oc2ccnc3cc(Cl)cc(Cl)c23)cc1 [II (quinoxyfen), 5,7-dichloro-4-(4-fluorophenoxy)quinoline]
Efficacy in % of the untreated control (1 ppm in the spray liquor (cell prints 161 = 16 and 1)): 0% | Efficacy in % of the untreated control (16 ppm in the spray liquor (cell prints 161 = 16 and 1)): 16%
